Reference: patent US20220363848A1, “ANTIMICROBIAL MULTILAYER FILM” (Cryovac, LLC, priority 2019, published 2022)

Test system: microbes of beef purge inoculum
Experiment: Modified film test: total aerobic plate count after contact of inoculum with antimicrobial test film
Format: cell-based
Conditions: for Antimicrobial Performance vs. VLDPE Control (percent reduction in microbes), Amide wax alone Erucamide, Test 2: primary additive 10 wt % in Affinity PL 1280G1 C8-VLDPE containing 1664 ppm cis-13-docosenamide
Description: Each of the materials shown in Tables 1 and 2 was compounded into sealant resin, comprised of Affinity PL 1280G, a C8-VLDPE and films were prepared for microbial control testing. The primary additives were tested at 10 wt %. Secondary additives and Cis-13-docosenamide (sold under the trade name Erucamide) were tested as detailed in Table 3.
Test 2: Each of the primary antimicrobial materials in Table 1 was compounded at 10 wt % into sealant resin comprised of Affinity PL 1280G1, a C8-VLDPE containing 1664 ppm of cis-13-docosenamide and films were prepared for microbial control testing.
Tests 3-5: Each of the primary antimicrobial materials in Table 1 was compounded at 10% w/w into sealant resin comprised of Affinity PL 1280G, a C8-VLDPE and 2-3 wt % of the secondary antimicrobials (Table 2) or cis-13-docosenamide were added as detailed in Table 3 and films were prepared for microbial control testing.
Due to the limitations seen in the laboratory with the ISO 22196 test, a modified film test was developed. The test protocol was designed to simulate an actual package environment. […] “Purge” is the liquid that exudes from cut meat or poultry and collects freely in the package. This is typically found in larger packages. The purge liquid can be carefully removed from the packages and used for the following tests. For the tests conducted in this study, beef purge was used. The beef purge is a combination of water, fats, enzymes and meat proteins that drain from the meat. The purge also contains the same bacterial flora as that which contaminates the surface of the meat itself. Thus, this purge could include gram positive bacteria like Lactobacillus species, (Lactic Acid Bacteria), and Listeria species, as well as, gram negative bacteria like E. coli, Campylobacter or Salmonella species.
Antimicrobial films may contain the active ingredient extruded into the surface layer of the film, or coated onto the film. A test method was developed to provide a continuous, uniform coverage of a known amount of the inoculum on the test films.
A 1 inch by 3 inch “tape well” is created on the antimicrobial test film. The “tape well” is crafted by cutting a 1 inch by 3 inch section from a strip of 3 inch wide vinyl tape and applying the tape to the antimicrobial film surface. The test film is secured to a Lexan sheet for stability and handling.
To the well, 0.2 ml of an inoculum is added. The inoculums are either the meat purge or cultures of nutrient broth with E. coli (ATTC #4157 or ATTC #33876) added to the broth. The Escherichia coli is a gram-negative, facultative, anaerobic, rod-shaped, coliform bacterium.
A 1 inch by 3 inch strip of Cryovac brand D-955, a non-barrier film, is placed over the inoculum to provide complete wetting of the test film with the inoculum and to prevent desiccation of the inoculum. The high OTR properties of the D-955 allow growth of the inoculum trapped between the antimicrobial test film and the D-955 film.
Inoculated films are incubated at refrigerated conditions of 40° F. for both 1 and 5 days in a high humidity sealed pouch.
The inoculum is recovered from the well by both adding the inoculum wetted D-955 film over-layment to a distilled water test tube and by swabbing the test film surface twice and placing the swab in the same test tube.
The total aerobic plate count is enumerated using Aerobic Plate Count 3M Petri Film.
Results are reported as log10 CFU/g. The difference in counts between the sample and control is the “delta log CFU/g”. This is mathematically converted to a percent reduction=(1−10^(−delta log CFU/g))*100

[1] = 5 day test, beef purge inoculum, 40° F.

Structure (SMILES)	Antimicrobial Performance vs. VLDPE Control (percent reduction in microbes), Amide wax alone Erucamide, Test 2 [1] [%]	Antimicrobial Performance vs. VLDPE Control (percent reduction in microbes), None Control, Test 1 (primary additive 10 wt % in Affinity PL 1280G C8-VLDPE sealant film, no secondary additive, 5 day test, beef purge inoculum, 40° F.) [%]	Antimicrobial Performance vs. VLDPE Control (percent reduction in microbes), Cleanatis M1 @ 2%, Test 4 (primary additive 10 wt % in VLDPE film plus 2 wt % Cleanatis M1 (With Amide wax), 5 day test, beef purge inoculum, 40° F.) [%]	Antimicrobial Performance vs. VLDPE Control (percent reduction in microbes), Cleanatis M2 @2%, Test 5 (primary additive 10 wt % in VLDPE film plus 2 wt % Cleanatis M2 (With Amide wax), 5 day test, beef purge inoculum, 40° F.) [%]	Antimicrobial Performance vs. VLDPE Control (percent reduction in microbes), KANCOR CLS @ 2%, Test 3 (primary additive 10 wt % in VLDPE film plus 2 wt % Kancor OxiKan CLS (With Amide wax), 5 day test, beef purge inoculum, 40° F.) [%]	Percent Reduction in Microbes of Test Samples at Day 5 versus the "Additive Controls", None Control, Test 1 (primary additive 10 wt % in VLDPE film, control = VLDPE film, Day 5) [%]	Percent Reduction in Microbes of Test Samples at Day 5 versus the "Additive Controls", Amide wax Erucamide, Test 2 (primary additive 10 wt % in VLDPE with Erucamide, control = VLDPE + Erucamide film, Day 5) [%]	Percent Reduction in Microbes of Test Samples at Day 5 versus the "Additive Controls", Cleanatis M1 @ 2%, Test 4 (primary additive 10 wt % plus Cleanatis M1 2%, control = VLDPE + Cleanatis M1 film, Day 5)	Percent Reduction in Microbes of Test Samples at Day 5 versus the "Additive Controls", Cleanatis M2 @2%, Test 5 (primary additive 10 wt % plus Cleanatis M2 2%, control = VLDPE + Cleanatis M2 film, Day 5)	Percent Reduction in Microbes of Test Samples at Day 5 versus the "Additive Controls", KANCOR CLS @ 2%, Test 3 (primary additive 10 wt % plus KANCOR CLS 2%, control = VLDPE + KANCOR CLS film, Day 5) [%]
CCCCCCCC/C=C\CCCCCCCCCCCC(N)=O [Erucamide, Cis-13-docosenamide]	0	–	–	–	–	–	–	–	–	–
C[C@H](O)C(=O)[O-].[Na+] [Purasal S98, Sodium L-lactate]	0	0	8.8	64.5187	92.0567	0	0	Growth	Growth	22.3735
